Results taken from patent US10045987B2, “Imidazoyl anilide derivatives and methods of use” (Codexis, Inc., priority 2014, dated 2018).

Columns and labels:
hERG potassium channels = hERG potassium channels (Homo sapiens, UniProt Q12809)
Procedure: CHO cells stably expressing hERG potassium channels obtained from Aviva BioSciences were used for this test.
Visual check for precipitation was conducted before testing.
The hERG QPatchHTX assay was conducted at room temperature. The whole-cell protocols, voltage protocols and application protocols were established with QPatch Assay Software 5.0 (Sophion).

K-562 cells = assay: K-562 cytotoxicity assay, CellTiter 96 Aqueous One, 72 hours; conditions: for K-562 IC50: 72 hours, CellTiter 96, class relative to nilotinib
[1] = system: K562 lymphoblast cell line; assay: K562 cytotoxicity assay at RBC, Cell Titer-Glo 2.0, 72 hours; format: cell-based; conditions: class relative to nilotinib
Procedure: In this Example, experiments conducted at RBC to assess the cytotoxicity of nilotinib and compounds 14, 17, 19, 21, and 22 (i.e., test compounds) are described. All of the test compounds were kept between 4° C. to 8° C. in solid form or as solution in DMSO.
The cell line K562 was obtained from the ATCC. Test compounds were dissolved in DMSO (1 mM stock). Cell Titer-Glo® 2.0 Luminescent cell viability assay reagent was obtained from Promega. K562 lymphoblast cell line was cultured in Iscove's Modified Dulbecco's medium supplemented with 10% FBS. 100 μg/ml penicillin and 100 μg/ml streptomycin were added to all culture media. Cultures were maintained at 37° C. in a humidified atmosphere of 5% CO2 and 95% air. Test compounds in DMSO were added in a source plate. 25 nL of test compounds was delivered from the source plate to each well of the 384-well cell culture plates by Echo 550. 25 μl of culture medium containing 1000 cells for each cell line was added to the wells of the cell culture plates. Cells were incubated with test compounds at 37° C., 5% CO2 for 72 hours. 25 μl of Cell Titer Glo 2.0 reagent was added to each well. The contents were mixed on an orbital shaker for 2 minutes and incubated at room temperature for 10 minutes to stabilize luminescent signal. Luminescence was recorded by Envision 2104 Multilabel Reader (PerkinElmer). The number of viable cells in culture was determined based on quantization of the ATP present in each culture well. The IC50 values were calculated and the IC50 curves were plotted using the GraphPad Prism 4 program based on a sigmoidal dose-response equation.

Flt1[h] = target: T1, Flt1[h] (Homo sapiens, UniProt P17948); assay: Flt1 kinase assay at Merck-Milliore (standard protocol); format: biochemical
T1 construct: purchased Merck-Milliore (contract assay service)
Procedure: (§1) The assays were performed at Merck-Milliore, using their standard assay protocols

PDGFRα[h] = PDGFRα[h] (Homo sapiens, UniProt P16234); assay: biochemical
Procedure: as §1

cKit[h] = target: T2, cKit[h] (Homo sapiens, UniProt P10721); assay: cKit kinase assay at Merck-Milliore (standard protocol); format: biochemical
T2 construct: purchased Merck-Milliore (contract assay service)
Procedure: as §1

cSRC = target: T3, cSRC (Homo sapiens, UniProt P12931); assay: cSRC kinase assay at Merck-Milliore (standard protocol); format: biochemical
T3 construct: purchased Merck-Milliore (contract assay service)
Procedure: as §1

| SMILES | hERG inhibition compared with Nilotinib (hERG potassium channels) | K-562 IC50 (K-562 cells) | K-562 IC50 (RBC) [1] | also measured |
| --- | --- | --- | --- | --- |
| Cc1ccc(C(=O)Nc2cc(-n3cnc(COC(=O)C4CC4)c3)cc(C(F)(F)F)c2)cc1Nc1nccc(-c2cccnc2)n1 [Compound 11] | less inhibiting to hERG than Nilotinib | ++ (IC50 more than 25% smaller than IC50 for nilotinib) | – | – |
| Cc1ccc(C(=O)Nc2cc(-n3cnc(COC(N)=O)c3)cc(C(F)(F)F)c2)cc1Nc1nccc(-c2cccnc2)n1 [Compound 12] | less inhibiting to hERG than Nilotinib | +++ (IC50 more than 75% great than IC50 for nilotinib) | – | IC50 (K-562 cells; Homo sapiens, K562, 72 h, read-out: K-562 IC50): < 0.001 µM |
| Cc1cn(-c2cc(NC(=O)c3ccc(C)c(Nc4nccc(-c5cccnc5)n4)c3)cc(C(F)(F)F)c2)cn1 [Compound 1, 4-methyl-N-[3-(4-methyl-1H-imidazol-1-yl)-5-(trifluoromethyl)phenyl]-3-[(4-pyridin-3-ylpyrimidin-2-yl)amino]benzamide, reference compound] | – | + | + | – |
| COC(=O)CNCc1cn(-c2cc(NC(=O)c3ccc(C)c(Nc4nccc(-c5cccnc5)n4)c3)cc(C(F)(F)F)c2)cn1 [Compound 22] | – | – | − (IC50 more than 25% great than IC50 for nilotinib) | – |
| Cc1ccc(C(=O)Nc2cc(-n3cnc(CO)c3)cc(C(F)(F)F)c2)cc1Nc1nccc(-c2cccnc2)n1 [Compound 2, N-[3-[4-(hydroxymethyl)imidazol-1-yl]-5-(trifluoromethyl)phenyl]-4-methyl-3-[[4-(3-pyridyl)pyrimidin-2-yl]amino]benzamide] | less inhibiting to hERG than Nilotinib | ++ (IC50 more than 25% smaller than IC50 for nilotinib) | – | IC50 (Flt1[h]): 1.1 µM; IC50 (PDGFRα[h]): 1.9 µM; IC50 (cKit[h]): 1.3 µM; hERG IC50 (μM) (hERG potassium channels): +; IC50 (cSRC): 1.3 µM |
| Cc1ccc(C(=O)Nc2cc(-n3cnc(CNCC(=O)O)c3)cc(C(F)(F)F)c2)cc1Nc1nccc(-c2cccnc2)n1 [Compound 21] | – | – | − (IC50 more than 25% great than IC50 for nilotinib) | – |
